Patent EP2085394B1, “Metronidazole derivatives as antiparasitic agents” (University of Jordan, priority 2008, dated 2009)
Values after ≈ are worked out from the molar mass of the structure shown.

Tests used:
Assay type in all cases: cell-based
[1] = tested on: Leishmania donovani promastigotes; assay: Antileishmanial activity, 96-well plates; conditions: for IC50: Leishmania donovani; for IC50 / IC100 Leishmania donovani: promastigotes, 72 h, 24°C; for lethal activity: Leishmania donovani promastigotes, result in words
Description: (§1) Entamoeba histolytica HK-9 strain (ATCC number 30015) was cultured in LYI-S-2 medium supplemented with antibiotics. Giardia intestinalis WB strain (ATCC number 30957) was grown in a modified YI-S medium with antibiotics. Both parasites were cultivated in 15-mL screw-capped borosilicate glass tubes containing 13 mL medium. The tubes were incubated on a 15° horizontal slant at (36-37) °C. Culture maintenance and subculturing was performed as described by Clark and Diamond. Entamoeba and Giardia were harvested from confluent cultures by chilling of the tubes on ice for 5-10 min to detach cells, followed by centrifugation at 800 x g for 5 min. Leishmania donovani and L. tropica promastigotes were cultured in Schneider's medium containing 20 % foetal calf serum and antibiotics at 24°C. Stationary phase promastigotes were harvested by centrifugation at 1000 x g for 10 min.
(§2) The antileishmanial activity of metronidazole-derivatives was tested in 96-well plates. Each of the meronidazole-derivatives and the reference drugs were dissolved in 10 µL of dimethyl sulfoxide (DMSO) and were completed with […] growth medium. The solutions were filter sterilized using 0.22 µm syringe filters. Then, 170 µL-two fold serial dilutions of each of the compounds and metronidazole starting at a concentration of 2000 µg/mL in culture medium were prepared in flat bottomed 96-well microtiter plates of 400-µL-well-capacity. A suspension containing 10^5 of Leishmania promastigotes per milliliter culture medium was prepared and 170-µL portions of the suspension were added to the appropriate wells. Plates were covered with the microtiter plate lids and incubated at 24°C. The number of parasites in each well was determined after 72 h by counting in a hemacytometer at the 10X objective lens. Leishmania viability was determined by observing promastigote motility. Each compound was assayed in duplicate in each of three independent experiments. In each assay two sets of controls were performed, one without any test compound and another with amphotericin B as a standard antileishmanial drug.
(§3) The minimal inhibitory concentration (MIC) defined as the minimum concentration of a compound at which no parasitic growth was observed. The 50% inhibitory concentration (IC50) was the concentration of compounds which cut the number of parasites to half that in the negative control (growth medium + DMSO + parasites).

[2] = tested on: Leishmania tropica promastigotes; assay: Antileishmanial activity, 96-well plates; conditions: for IC50: Leishmania tropica; for IC50 / IC100 Leishmania tropica: promastigotes, 72 h, 24°C; for lethal activity: Leishmania tropica promastigotes, result in words
Description: as §1, §2, §3

Vero cells = assay: Cytotoxicity assay, trypan blue exclusion; conditions: compared with the standard drug
Description: (§4) The cytotoxicity of the metronidazole-derivatives and the reference drugs was investigated on Hep-2 and Vero cells using the standard cytotoxicity assay and the trypan blue exclusion method, as described in the literature, with modifications. A cell suspension (10^5 cells/mL RPMI medium containing 10% inactivated foetal calf serum) was prepared from confluent cultures and 100 µL portions of the suspension were added to the wells of 96-well plates. The cells were incubated for 24 h at 37 °C and 5 % CO2 and the medium in each well was then replaced with fresh 150 µL medium. Solutions of the test compounds or reference drugs were prepared and sterilized as described above (Antiprotozolal activity). Then, 150 µL-two fold serial dilutions of each of the compounds and the reference drugs starting at a concentration of 2000 µg/mL in culture medium were prepared in the plates. After 48 hour incubation at 37 °C and 5 % CO2, the number of cells in each well was determined as follows: The medium in each well was gently replaced with 100 µL of 0.25% (w/v) trypsin-0.53 mM EDTA solution and the plates were incubated for 5 minute at 37 °C to detach the cells followed by the addition of 200 µL of trypan blue solution were added to each well and the plates were, then, placed on ice. The cells were counted in a hemacytometer at the 10X objective. Each compound or reference drug was assayed in duplicate in each of three independent experiments. In each assay the negative controls (without any test compound or reference drug) were included in duplicates. IC0 was the concentration of compound at which the number of cells in the well was more than or equal to that of the negative control (IC0 = no inhibition of cell growth). Table 1. Antiamoebic and antigiardial activities of compounds IA, IIA, and IIIA

Hep-2 cells = assay: Cytotoxicity assay, trypan blue exclusion; conditions: compared with the standard drug
Description: as §4

[3] = tested on: Giardia intestinalis WB strain; assay: Antigiardial activity, tube method; conditions: for IC100 Giardia intestinalis / IC50: 72 hours, (36-37) °C, parasite count; for IC50: Giardia duodenalis; for lethal activity / IC50 times less than that of metronidazole: Giardia intestinalis; for lethal activity: result in words; for IC50 times less than that of metronidazole: relative to the standard drug metronidazole
Description: as §1
(§5) The antiamoebic and antigiardial activities of metronidazole-derivatives were tested using the tube method according to published procedures with some modifications. Eight milligrams of a test compound or metronidazole were dissolved in 10 µL of dimethyl sulfoxide (DMSO) and completed with 10 mL growth medium. The solutions were filter sterilized using 0.22 µm syringe filters and the appropriate volumes of the solutions were taken to prepare the concentrations of each compound in 15-mL screw-capped borosilicate glass tubes. For each compound, concentrations of 60, 30, 15, 7.5, 3.5, 1.7, 0.8, 0.4, 0.2, 0.1, 0.05, 0.02, 0.01, 0.005 µg/mL medium were prepared in a final volume of 15 mL to exclude air from the tube. For more accurate determination of the biologically active concentration of the compound, other concentrations around the above mentioned ones were also tested. Each tube was inoculated with 20,000 cells of the parasite under testing (Entamoeba or Giardia). Each compound was assayed in duplicate in each of three independent experiments. In each assay, two sets of controls were performed, one without any test compound and another with metronidazole. The caps of Entamoeba and Giardia tubes were tightly screwed and wrapped with parafilm. The tubes were incubated on a 15° horizontal slant at (36-37) °C for 72 hours.
(§6) The number of parasites in the tubes was determined as described in the literature by counting in a hemacytometer at the 10X objective. For counting of Entamoeba and Giradia, the tubes were placed on ice to permit detachment of the parasite and centrifuged at 1000 x g for 10 min. The supernatant was discarded and 1 mL fresh medium was added to each tube. Then, 25 µL of the parasite suspension in each tube was mixed with 100 µL of 0.4 % trypan blue in phosphate buffered saline (PBS) to distinguish viable from dead parasites.
as §3

[4] = tested on: Entamoeba histolytica HK-9 strain; assay: Antiamoebic activity, tube method; conditions: for IC100 Entamoeba histolytica / IC50: 72 hours, (36-37) °C, parasite count; for lethal activity / IC50 / IC50 times less than that of metronidazole: Entamoeba histolytica; for lethal activity: result in words; for IC50 times less than that of metronidazole: relative to the standard drug metronidazole
Description: as §1, §5, §6, §3

| IC50 [1] | IC50 [2] | IC50 [3] | IC50 times less than that of metronidazole [3] | IC50 [4] | IC50 times less than that of metronidazole [4] | SMILES | IC100 Leishmania donovani [1] | IC100 Leishmania tropica [2] | cytotoxicity (Vero cells) | cytotoxicity (Hep-2 cells) | IC100 Giardia intestinalis [3] | lethal activity [3] | lethal activity [1] | lethal activity [2] | IC100 Entamoeba histolytica [4] | lethal activity [4] |
| --- | --- | --- | --- | --- | --- | --- | --- | --- | --- | --- | --- | --- | --- | --- | --- | --- |
| 0.08 mg/L (≈ 0.0866 µM) | 0.08 mg/L (≈ 0.0866 µM) |  |  |  |  | C[C@@H]1[C@H](O)[C@@H](C)/C=C/C=C/C=C/C=C/C=C/C=C/C=C/[C@H](O[C@@H]2O[C@H](C)[C@@H](O)[C@H](N)[C@@H]2O)C[C@@H]2O[C@](O)(C[C@@H](O)C[C@@H](O)[C@H](O)CC[C@@H](O)C[C@@H](O)CC(=O)O[C@H]1C)C[C@H](O)[C@H]2C(=O)O [Amphotericin B, reference compound] | 2.5 µg/mL | 2.5 µg/mL |  |  |  |  |  |  |  |  |
| 300 mg/L (≈ 1090 µM) | 150 mg/L (≈ 545 µM) | 0.01 mg/L (≈ 0.0363 µM) | 80 times | 0.01 mg/L (≈ 0.0363 µM) | 80 times | Cc1ncc([N+](=O)[O-])n1CCOc1ccc(C=O)cc1 [Compound IA, 4-[2-(2-methyl-5-nitro-1H-imidazol-1-yl)ethoxy]benzaldehyde] | 2000 µg/mL | 2000 µg/mL | equivalent in cytotoxicity to the standard drug | equivalent in cytotoxicity to the standard drug | 0.14 µg/mL | potent lethal activity | lethal activity | lethal activity | 0.14 µg/mL | potent lethal activity |
| 62.5 mg/L (≈ 221 µM) | 62.5 mg/L (≈ 221 µM) | 0.04 mg/L (≈ 0.141 µM) | 20 times | 0.04 mg/L (≈ 0.141 µM) | 20 times | Cc1ncc([N+](=O)[O-])n1CCN1CCN(CCO)CC1 [IIIA] | 250 µg/mL | 250 µg/mL | equivalent in cytotoxicity to the standard drug | equivalent in cytotoxicity to the standard drug | 0.8 µg/mL | potent lethal activity | lethal activity | lethal activity | 0.8 µg/mL | potent lethal activity |
| 2000 mg/L (≈ 11700 µM) | 2000 mg/L (≈ 11700 µM) | 0.8 mg/L (≈ 4.67 µM) |  | 0.8 mg/L (≈ 4.67 µM) |  | Cc1ncc([N+](=O)[O-])n1CCO [Metronidazole, 2-(2-methyl-5-nitro-1H-imidazol-1-yl) ethanol] |  |  |  |  | 3.2 µg/mL |  |  |  | 3.2 µg/mL |  |

| SMILES | IC50 [1] | IC50 [2] | IC50 [3] | IC50 times less than that of metronidazole [3] | IC50 [4] | IC50 times less than that of metronidazole [4] | IC100 Leishmania donovani [1] | IC100 Leishmania tropica [2] | cytotoxicity (Vero cells) | cytotoxicity (Hep-2 cells) | IC100 Giardia intestinalis [3] | lethal activity [3] | lethal activity [1] | lethal activity [2] | IC100 Entamoeba histolytica [4] | lethal activity [4] |
| --- | --- | --- | --- | --- | --- | --- | --- | --- | --- | --- | --- | --- | --- | --- | --- | --- |
| Cc1ncc([N+](=O)[O-])n1CCNS(=O)(=O)c1sc(Cl)cc1Br [IIA] | 300 mg/L (≈ 698 µM) | 150 mg/L (≈ 349 µM) | 0.04 mg/L (≈ 0.0931 µM) | 20 times | 0.04 mg/L (≈ 0.0931 µM) | 20 times | 2000 µg/mL | 2000 µg/mL | equivalent in cytotoxicity to the standard drug | equivalent in cytotoxicity to the standard drug | 0.3 µg/mL | potent lethal activity | lethal activity | lethal activity | 0.3 µg/mL | potent lethal activity |
